Source: US11851421B2, “Near-infrared cyanine dyes and conjugates thereof” (BRACCO IMAGING S.P.A., priority 2020, dated 2023)

How the values were obtained:
[1] = Optical properties: excitation/emission maxima and absolute fluorescence quantum yield; type: physicochemical
Method: A dual-beam UV-VIS spectrophotometer (Lambda 40, Perkin Elmer) was used to determine the absorbance (Abs) of the compounds of the invention. Emission/excitation (Em/Ex) spectra and absolute fluorescence quantum yield (ϕ) measurements were carried out on a spectrofluorometer (FluoroLog-3 1IHR-320, Horiba Jobin Yvon) equipped with an F-3018 integrating sphere accessory. The measurements were performed using an excitation wavelength at maximum absorbance of different dyes, and the sample was excited with a 450 W Xenon Light Source. Detection was performed by photomultiplier tubes (PMT-NIR) cooled detector or by TBX-04 detector. Dye solutions were carefully prepared to have an absorbance lower than 0.1 (optical densities) to minimize re-absorption phenomena.
The compounds of the invention have been characterized in terms of their optical properties in vitro in aqueous medium (i.e., water/PBS pH 7.4) and in a clinical chemistry control serum (Seronorm, Sero SA), mimicking the chemical composition and optical properties of human serum. All dye or dye-conjugate solutions were freshly prepared. ICG and S0456 were used as commercial references.
In particular, the excitation and emission maxima and the absolute fluorescence quantum yield (Φ) of representative compounds of formula (I) and conjugates of formula (II) are shown in Table II.

[2] = molecular target: T1, human serum albumin (HSA) (Homo sapiens, UniProt P02768); experiment: Binding affinity to human serum albumin (absorbance peak shift or ultrafiltration method)
T1 construct: purchased Sigma Aldrich A9511
Method: An analysis of the binding affinity of the compounds of the invention to human albumin was carried out and the results compared with ICG and […] as a reference. Binding affinity to human serum albumin (HSA; Sigma Aldrich, A9511) was measured using two methods, according to the level of binding affinity of the compounds. The first method, optimal for compounds which strongly interact with HSA, is based on the analysis of the absorbance spectrum peak shift after the incubation of the dye in solutions containing HSA. […] The measure was performed at the maximum absorbance wavelength of the shifted peak. The second method, optimal for compound with low affinity for HSA, is based on measuring the variation of the absorbance of solutions containing the dye and various concentrations of HSA after ultrafiltration. […] In the first method, ΔA/b corresponds to the absorbance measured for each sample, whereas in the second method ΔA/b is obtained subtracting the absorbance of the control sample (dye without HSA) to the absorbance of each other sample.

[3] = molecular target: T2, human recombinant integrin αvβ3 (Homo sapiens, UniProt P05106+P06756); experiment: Receptor binding affinity ELISA (Vitronectin-coated plates); settings: duplicate, read-out: Receptor affinity (IC50, nM ± St. Dev.)
T2 construct: purchased R&D Systems
Method: Briefly, 96-well ELISA plates were coated overnight at 4° C. with the extracellular matrix (ECM) protein Vitronectin in carbonate buffer (15 mM Na2CO3, 35 mM NaHCO3, pH 9.6). Each well was then washed with PBS-T-buffer (phosphate-buffered saline/Tween20, 137 mM NaCl, 2.7 mM KCl, 10 mM Na2HPO4, 2 mM KH2PO4, 0.01% Tween20, pH 7.4) and blocked for 1 h at RT with TS-B-buffer (Tris-saline/BSA buffer; 20 mM Tris-HCl, 150 mM NaCl, 1 mM CaCl2, 1 mM MgCl2, 1 mM MnCl2, pH 7.5, 1% BSA). In the meantime, a dilution series of the compound and internal standard was prepared in an extra plate. After washing the assay plate three times with PBS-T, 50 μL of the dilution series were transferred to each well. 50 μL of a solution of human recombinant integrin αvβ3 (R&D Systems, 1 μg/mL) in TS-B-buffer was transferred to the wells and incubated for 1 h. The plate was washed three times with PBS-T buffer, and then primary antibody anti-αvβ3 was added to the plate. After incubation and washing three times with PBS-T, the secondary anti-IgG peroxidase-labeled antibody was added to the plate and incubated for 1 h. After washing the plate three times with PBS-T, the plate was developed by quick addition of 3,3′,5,5′-tetrametylbenzidine (TMB) and incubated for 5 min in the dark. The reaction was stopped with 3 M H2SO4, and the absorbance was measured at 450 nm with a plate reader (Victor3, Perkin Elmer).
The IC50 of the representative Compounds 1, 2 and 4 was tested in duplicate, and the resulting inhibition curves were analyzed using GraphPad Prism version 4.0 for Windows (GraphPad Software). The inflection point defines the IC50 value.

[4] = test system: WM-266-4 human melanoma cells; experiment: Cell uptake by FACS in presence of human serum; type: cell-based; settings: WM-266-4 cells; fluorescence intensity in absence of serum = 100%
Method: The human melanoma cell line WM-266-4 (ATCC, CRL-1676) was used as in vitro model to assess the cell uptake of representative integrin-binding Compounds 1, 2 and 4, based on the high expression of the integrin receptors, particularly αvβ3, on the membrane of these cells (Capasso et al., PlosOne 2014).
Adherent cells at about 70% confluence were incubated with the Compounds 1 or 3 (1 μM) for 2 h at 37° C. (5% CO2) in presence of Dulbecco's Modified Eagle's Medium (DMEM) supplemented with 10% FBS, 2 mM glutamine, 100 IU/mL penicillin and 100 μg/mL streptomycin. […] Fluorescence Activated Cell Sorting (FACS) was used to detect the fluorescence signal within the cells, as measure of cell uptake. Samples were excited with an Argon laser and the emission detected using a 670 nm longpass filter. Values of fluorescence intensity were obtained from the histogram statistic produced by the instrument software.
The residual internalization was calculated by considering the value of fluorescence intensity in absence of the competitor as 100%.
Furthermore, to assess the effect of biological fluids on the cell uptake, parallel experiments were performed incubating the cells with a compounds of the invention in presence of human serum from male AB plasma (Sigma Aldrich, H4522). The residual internalization was calculated by considering the value of fluorescence intensity in absence of the serum as 100%. […]

[5] = test system: human glioblastoma U87MG cells; experiment: Tumor uptake in animal model of human glioblastoma (subcutaneous), ex vivo optical imaging; settings: ex vivo tumor-to-muscle, 24 h after i.v. administration, glioblastoma tumor bearing mice, n = 5/group
Method: Tumor uptake experiments were carried out in an animal model of human glioblastoma (subcutanous) overexpressing the integrin receptors, particularly αvβ3. Briefly, human glioblastoma U87MG cells (ATCC, HTB-14) were cultured in Eagle's Minimum Essential Medium (EMEM) supplemented with 10% Fetal Bovine Serum (FBS), 2 mM glutamine, 100 IU/mL penicillin, 100 μg/mL streptomycin. Male Balb/c nu/nu mice, 4-6 weeks of age (Charles River Laboratories), underwent subcutaneous implantation (right flank) of about 10 million cells suspended in 0.1 mL of EMEM. Mice were housed 4 per cage with food and water ad libitum. Animals were fed with VRF1 (P) sterile diet (Special Diets Services Ltd) up to the end of the acclimation period (5 days). Then, AIN-76a rodent diet irradiated (Research Diets), a special diet that reduces auto-fluorescence, was used up to the end of the experiments. Tumor growth was monitored by longitudinal assessments using a caliper up to the target size of 300-600 mm^3 (3-4 weeks after cell implantation). […] Regions of interest (ROIs) were drawn on the excised tumor and healthy muscle tissues to evaluate signal intensity (expressed as Average Radiant Efficiency). The ratio between the fluorescence signal in the tumor and in the muscle (background tissue) was then calculated to assess the contrast.

[6] = Seronorm (clinical chemistry control serum)

T1 sequence (P02768 25-609): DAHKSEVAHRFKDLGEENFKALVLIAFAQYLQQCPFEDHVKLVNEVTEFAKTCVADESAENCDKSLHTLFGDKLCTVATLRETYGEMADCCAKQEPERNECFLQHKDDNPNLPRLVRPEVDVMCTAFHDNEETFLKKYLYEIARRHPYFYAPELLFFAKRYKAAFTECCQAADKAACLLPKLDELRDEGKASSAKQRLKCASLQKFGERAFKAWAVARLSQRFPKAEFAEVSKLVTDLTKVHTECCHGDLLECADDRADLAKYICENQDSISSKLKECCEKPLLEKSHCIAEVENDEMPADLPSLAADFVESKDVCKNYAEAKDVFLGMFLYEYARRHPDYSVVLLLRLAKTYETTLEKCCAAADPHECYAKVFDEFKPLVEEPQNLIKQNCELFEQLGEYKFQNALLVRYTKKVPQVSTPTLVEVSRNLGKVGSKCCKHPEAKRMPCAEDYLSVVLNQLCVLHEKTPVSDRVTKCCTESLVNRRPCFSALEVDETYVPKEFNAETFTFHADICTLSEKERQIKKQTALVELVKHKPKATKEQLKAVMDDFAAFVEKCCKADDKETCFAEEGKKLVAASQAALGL
T2 sequence (P06756 31-992 limits assumed): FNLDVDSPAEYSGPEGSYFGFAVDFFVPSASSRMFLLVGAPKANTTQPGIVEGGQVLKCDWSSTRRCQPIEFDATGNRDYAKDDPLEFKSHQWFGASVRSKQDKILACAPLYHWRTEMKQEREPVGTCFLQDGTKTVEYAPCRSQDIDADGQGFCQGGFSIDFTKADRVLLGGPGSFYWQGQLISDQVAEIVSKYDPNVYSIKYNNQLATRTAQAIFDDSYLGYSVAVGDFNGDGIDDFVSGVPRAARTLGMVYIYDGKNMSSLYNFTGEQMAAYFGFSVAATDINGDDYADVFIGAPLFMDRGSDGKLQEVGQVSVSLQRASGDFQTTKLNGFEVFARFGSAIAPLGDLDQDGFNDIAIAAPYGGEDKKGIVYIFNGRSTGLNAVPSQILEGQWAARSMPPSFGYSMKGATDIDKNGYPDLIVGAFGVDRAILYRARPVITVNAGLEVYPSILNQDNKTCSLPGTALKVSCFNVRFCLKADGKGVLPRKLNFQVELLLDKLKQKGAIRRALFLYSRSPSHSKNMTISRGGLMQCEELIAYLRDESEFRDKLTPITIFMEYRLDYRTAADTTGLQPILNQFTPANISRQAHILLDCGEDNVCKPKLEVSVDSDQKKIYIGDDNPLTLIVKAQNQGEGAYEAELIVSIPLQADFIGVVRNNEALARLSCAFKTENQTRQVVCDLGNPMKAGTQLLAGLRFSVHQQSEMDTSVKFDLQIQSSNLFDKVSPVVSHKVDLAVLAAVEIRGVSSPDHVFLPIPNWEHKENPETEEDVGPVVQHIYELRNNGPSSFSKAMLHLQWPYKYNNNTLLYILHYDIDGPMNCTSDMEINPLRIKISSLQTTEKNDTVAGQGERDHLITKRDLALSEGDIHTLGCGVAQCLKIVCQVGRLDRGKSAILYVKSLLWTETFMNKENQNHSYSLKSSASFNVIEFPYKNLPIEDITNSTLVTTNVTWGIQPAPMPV
T2 sequence (P05106 27-718 limits assumed): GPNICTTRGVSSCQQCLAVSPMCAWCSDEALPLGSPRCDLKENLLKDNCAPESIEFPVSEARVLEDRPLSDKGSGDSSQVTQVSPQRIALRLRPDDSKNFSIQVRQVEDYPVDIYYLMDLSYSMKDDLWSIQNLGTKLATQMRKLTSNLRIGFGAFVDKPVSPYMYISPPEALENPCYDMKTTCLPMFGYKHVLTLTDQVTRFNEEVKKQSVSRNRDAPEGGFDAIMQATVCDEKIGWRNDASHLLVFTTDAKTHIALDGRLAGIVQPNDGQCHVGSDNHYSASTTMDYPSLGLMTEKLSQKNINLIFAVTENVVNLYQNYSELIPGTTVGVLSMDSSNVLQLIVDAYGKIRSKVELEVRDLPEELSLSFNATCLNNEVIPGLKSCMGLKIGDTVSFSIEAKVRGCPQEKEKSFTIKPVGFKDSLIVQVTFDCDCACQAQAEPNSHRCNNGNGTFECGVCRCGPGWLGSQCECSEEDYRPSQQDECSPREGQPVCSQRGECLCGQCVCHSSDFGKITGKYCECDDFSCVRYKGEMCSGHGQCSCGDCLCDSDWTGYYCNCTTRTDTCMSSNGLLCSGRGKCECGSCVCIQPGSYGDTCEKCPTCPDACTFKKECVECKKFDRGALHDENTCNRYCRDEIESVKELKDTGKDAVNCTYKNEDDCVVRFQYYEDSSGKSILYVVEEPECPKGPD

Row | SMILES | Max Em (emission maximum) ([1]; PBS pH 7.4) [nm] | Max Ex (excitation maximum) ([1]; PBS pH 7.4) [nm] | Φ (absolute fluorescence quantum yield) ([1]; PBS pH 7.4) [%] | Φ (absolute fluorescence quantum yield) [1, 6] [%] | Kd [2] [µM] | HSA affinity (KA) [2] | IC50 [3] [nM] | Residual cell uptake in presence of human serum [4] [%] | Tumor-to-background ratio (mean ± St. Dev) [5]
1 | CC1(C)C(/C=C/C2=C(c3ccccc3)C(=C/C=C3\N(CCCCCC(=O)NCCCCC4NC(=O)[C@@H](Cc5ccccc5)NC(=O)[C@H](CC(=O)O)NC(=O)CNC(=O)[C@H](CCCNC(=N)N)NC4=O)c4ccc(C(=O)NCC(O)C(O)C(O)C(O)CO)cc4C3(C)C)/CCC2)=[N+](CCCCS(=O)(=O)[O-])c2ccc(C(=O)NCC(O)C(O)C(O)C(O)CO)cc21 (stereo partly drawn) [Compound 3] | 787 | 771 | 6.4 | 8.1 | – | – | – | – | –
2 | CC1(C)C(/C=C/C2=C(Oc3ccccc3)C(=C/C=C3/N(CCCCCC(=O)NCCCCC4NC(=O)[C@@H](Cc5ccccc5)NC(=O)[C@H](CC(=O)O)NC(=O)CNC(=O)[C@H](CCCNC(=N)N)NC4=O)c4ccc(C(=O)NCC(O)C(O)C(O)C(O)CO)cc4C3(C)C)/CCC2)=[N+](CCCCS(=O)(=O)[O-])c2ccc(C(=O)NCC(O)C(O)C(O)C(O)CO)cc21 (stereo partly drawn) [Compound 4] | 803 | 781 | 5.0 | 9.9 | 100 | – | 1.84 ± 0.38 | 85 | 7.64 ± 0.86
3 | CC1(C)C(/C=C/C2=C(c3ccc(CCC(=O)O)cc3)C(=C/C=C3/N(CCCCS(=O)(=O)O)c4ccc(C(=O)NCC(O)C(O)C(O)C(O)CO)cc4C3(C)C)/CCC2)=[N+](CCCCS(=O)(=O)[O-])c2ccc(C(=O)NCC(O)C(O)C(O)C(O)CO)cc21 (stereo not drawn) [Compound 11] | 786 | 764 | 6.3 | 11.5 | 154 | – | – | – | –
4 | CC1(C)C(/C=C/C2=C(Oc3ccc(S(=O)(=O)O)cc3)C(=C/C=C3/N(CCCCCC(=O)O)c4ccc(C(=O)NCC(O)C(O)C(O)C(O)CO)cc4C3(C)C)/CCC2)=[N+](CCCCS(=O)(=O)[O-])c2ccc(C(=O)NCC(O)C(O)C(O)C(O)CO)cc21 (stereo not drawn) [Compound 15] | – | – | – | – | 11 | – | – | – | –
5 | CC1(C)C(/C=C/C2=C(c3ccccc3)C(=C/C=C3/N(CCCCS(=O)(=O)O)c4ccc(C(=O)NCC(O)C(O)C(O)C(O)CO)cc4C3(C)C)/CCC2)=[N+](CCCCS(=O)(=O)[O-])c2ccc(C(=O)NCC(O)C(O)C(O)C(O)CO)cc21 (stereo not drawn) [Compound 17] | 788 | 768 | 5.5 | 11.8 | 81.6 | – | – | – | –
6 | CC1(C)C(/C=C/C2=C(Oc3ccccc3)C(=C/C=C3/N(CCCCS(=O)(=O)O)c4ccc(C(=O)NC5C(O)C(O)C(O)C(O)C5O)cc4C3(C)C)/CCC2)=[N+](CCCCS(=O)(=O)[O-])c2ccc(C(=O)NC3C(O)C(O)C(O)C(O)C3O)cc21 (stereo not drawn) [Compound 20] | 801 | 780 | 6.3 | 7.7 | 72.5 | – | – | – | –
7 | CC1(C)C(/C=C/C2=C(c3ccccc3)C(=C/C=C3/N(CCCCC(=O)O)c4ccc(C(=O)NCC(O)C(O)C(O)C(O)CO)cc4C3(C)C)/CCC2)=[N+](CCCCS(=O)(=O)[O-])c2ccc(C(=O)NCC(O)C(O)C(O)C(O)CO)cc21 (stereo not drawn) [Compound 22] | 803 | 782 | 6.1 | 9.8 | 120 | – | – | – | –
8 | CC1(C)C(/C=C/C=C/C=C/C=C2\N(CCCCS(=O)(=O)O)c3ccc4ccccc4c3C2(C)C)=[N+](CCCCS(=O)(=O)[O-])c2ccc3ccccc3c21 [ICG, Indocyanine green, reference compound] | 810 | 780 | 1.5 | 7.8 | – | – | – | – | –

Further lines, with some results ahead:

Row | Max Em (emission maximum) ([1]; PBS pH 7.4) [nm] | Max Ex (excitation maximum) ([1]; PBS pH 7.4) [nm] | Φ (absolute fluorescence quantum yield) ([1]; PBS pH 7.4) [%] | Φ (absolute fluorescence quantum yield) [1, 6] [%] | Kd [2] [µM] | HSA affinity (KA) [2] | SMILES | IC50 [3] [nM] | Residual cell uptake in presence of human serum [4] [%] | Tumor-to-background ratio (mean ± St. Dev) [5]
9 | 804 | 781 | 6.2 | 10.5 | 68.5 | – | CC1(C)C(/C=C/C2=C(Oc3ccccc3)C(=C/C=C3/N(CCCCS(=O)(=O)O)c4ccc(C(=O)NCC(O)CO)cc4C3(C)C)/CCC2)=[N+](CCCCS(=O)(=O)[O-])c2ccc(C(=O)NCC(O)CO)cc21 (stereo not drawn) [Compound 18] | – | – | –
10 | 805 | 783 | 6.5 | 10.9 | 35.3 | – | CC1(C)C(/C=C/C2=C(Oc3ccccc3)C(=C/C=C3/N(CCCCS(=O)(=O)O)c4ccc(C(=O)NC(CO)CO)cc4C3(C)C)/CCC2)=[N+](CCCCS(=O)(=O)[O-])c2ccc(C(=O)NC(CO)CO)cc21 [Compound 19] | – | – | –
11 | 790 | 769 | 5.6 | 12.8 | 30.9 | – | CC1(C)C(/C=C/C2=C(c3ccccc3)C(=C/C=C3/N(CCCCS(=O)(=O)O)c4ccc(C(=O)NC(CO)(CO)CO)cc4C3(C)C)/CCC2)=[N+](CCCCS(=O)(=O)[O-])c2ccc(C(=O)NC(CO)(CO)CO)cc21 [Compound 21] | – | – | –
12 | 803 | 782 | 3.9 | 7.7 | – | 350,000 M^−1 | CC1(C)C(/C=C/C2=C(Cl)C(=C/C=C3/N(CCCCS(=O)(=O)[O-])c4ccc(S(=O)(=O)[O-])cc4C3(C)C)/CCC2)=[N+](CCCCS(=O)(=O)[O-])c2ccc(S(=O)(=O)[O-])cc21.[Na+].[Na+].[Na+] [Compound S0456, reference compound] | – | – | –
